Assay results reported in patent publication US20210330594A1, “Fast-Acting Soft Gelatin Capsules Containing A Mixture Of Pain Reliever/Fever Reducer, Diuretic And Antihistamine” (PuraCap Pharmaceutical LLC, priority 2018, published 2021).
Structures can show the parent of a compound that is named as a salt.

Test: Stability determination of softgels under accelerated conditions (API assay)
Type: physicochemical
Settings: for T0 % of label: softgel of Example 1, initial (T0) API assay; for Assay % of label 40° C./75% RH 1 M / Assay % of label 40° C./75% RH 2 M / Assay % of label 40° C./75% RH 3 M: softgel, accelerated conditions 40° C./75% RH
Method: Manufactured softgels are evaluated to predict shelf life of the product. Softgel samples are kept under accelerated conditions (ACC) of 40° C./75% RH for 180 days. Samples are withdrawn and tested at predetermined periods for API assay and homogeneity. Results are compared against the label specification; if ACC-6M results (i.e., at 6 months) are within specification then a product shelf life of 2 years is predicted.

SMILES	T0 % of label	Assay % of label 40° C./75% RH 1 M	Assay % of label 40° C./75% RH 2 M	Assay % of label 40° C./75% RH 3 M
CC(=O)Nc1ccc(O)cc1 [Acetaminophen]	94.2 % of label	94.0 % of label	94.1 % of label	92.2 % of label
Cn1c(=O)c2[nH]c(Br)nc2n(C)c1=O [Pamabrom]	95.5 % of label	95.1 % of label	95.0 % of label	93.4 % of label
COc1ccc(CN(CCN(C)C)c2ccccn2)cc1 [Pyrilamine Maleate]	94.3 % of label	94.0 % of label	94.2 % of label	93.9 % of label
